Experiments:
Assay in all cases: kinome scan
Format in all cases: binding
[1] = target: T1, ABL1(H396P)-phosphorylated (Homo sapiens, UniProt P00519, H396P); settings: 10 µM
T1 construct: purchased DiscoverX (KINOMEscan)

[2] = target: T2, ADCK3 (Homo sapiens, UniProt Q8NI60); settings: 10 µM
T2 construct: purchased DiscoverX (KINOMEscan)

[3] = target: T3, AURKA (Homo sapiens, UniProt O14965); settings: 10 µM
T3 construct: purchased DiscoverX (KINOMEscan)

[4] = target: T4, BIKE (Homo sapiens, UniProt Q9NSY1); settings: 10 µM
T4 construct: purchased DiscoverX (KINOMEscan)

[5] = target: T5, BMPR1A (Homo sapiens, UniProt P36894); settings: 10 µM
T5 construct: purchased DiscoverX (KINOMEscan)

[6] = target: T6, CAMK2B (Homo sapiens, UniProt Q13554); settings: 10 µM
T6 construct: purchased DiscoverX (KINOMEscan)

[7] = target: T7, CAMK2D (Homo sapiens, UniProt Q13557); settings: 10 µM
T7 construct: purchased DiscoverX (KINOMEscan)

[8] = target: T8, CDC2L1 (Homo sapiens, UniProt P21127); settings: 10 µM
T8 construct: purchased DiscoverX (KINOMEscan)

[9] = target: T9, CDK11 (Homo sapiens, UniProt Q9BWU1); settings: 10 µM
T9 construct: purchased DiscoverX (KINOMEscan)

[10] = target: T10, CDK9 (Homo sapiens, UniProt P50750); settings: 10 µM
T10 construct: purchased DiscoverX (KINOMEscan)

[11] = target: T11, CDKL5 (Homo sapiens, UniProt O76039); settings: 10 µM
T11 construct: purchased DiscoverX (KINOMEscan)

[12] = target: T12, DAPK1 (Homo sapiens, UniProt P53355); settings: 10 µM
T12 construct: purchased DiscoverX (KINOMEscan)

[13] = target: T13, DRAK2 (Homo sapiens, UniProt O94768); settings: 10 µM
T13 construct: purchased DiscoverX (KINOMEscan)

[14] = target: T14, EGFR (Homo sapiens, UniProt P00533); settings: 10 µM
T14 construct: purchased DiscoverX (KINOMEscan)

[15] = target: T15, EPHA1 (Homo sapiens, UniProt P21709); settings: 10 µM
T15 construct: purchased DiscoverX (KINOMEscan)
T15 sequence (P21709 26-976): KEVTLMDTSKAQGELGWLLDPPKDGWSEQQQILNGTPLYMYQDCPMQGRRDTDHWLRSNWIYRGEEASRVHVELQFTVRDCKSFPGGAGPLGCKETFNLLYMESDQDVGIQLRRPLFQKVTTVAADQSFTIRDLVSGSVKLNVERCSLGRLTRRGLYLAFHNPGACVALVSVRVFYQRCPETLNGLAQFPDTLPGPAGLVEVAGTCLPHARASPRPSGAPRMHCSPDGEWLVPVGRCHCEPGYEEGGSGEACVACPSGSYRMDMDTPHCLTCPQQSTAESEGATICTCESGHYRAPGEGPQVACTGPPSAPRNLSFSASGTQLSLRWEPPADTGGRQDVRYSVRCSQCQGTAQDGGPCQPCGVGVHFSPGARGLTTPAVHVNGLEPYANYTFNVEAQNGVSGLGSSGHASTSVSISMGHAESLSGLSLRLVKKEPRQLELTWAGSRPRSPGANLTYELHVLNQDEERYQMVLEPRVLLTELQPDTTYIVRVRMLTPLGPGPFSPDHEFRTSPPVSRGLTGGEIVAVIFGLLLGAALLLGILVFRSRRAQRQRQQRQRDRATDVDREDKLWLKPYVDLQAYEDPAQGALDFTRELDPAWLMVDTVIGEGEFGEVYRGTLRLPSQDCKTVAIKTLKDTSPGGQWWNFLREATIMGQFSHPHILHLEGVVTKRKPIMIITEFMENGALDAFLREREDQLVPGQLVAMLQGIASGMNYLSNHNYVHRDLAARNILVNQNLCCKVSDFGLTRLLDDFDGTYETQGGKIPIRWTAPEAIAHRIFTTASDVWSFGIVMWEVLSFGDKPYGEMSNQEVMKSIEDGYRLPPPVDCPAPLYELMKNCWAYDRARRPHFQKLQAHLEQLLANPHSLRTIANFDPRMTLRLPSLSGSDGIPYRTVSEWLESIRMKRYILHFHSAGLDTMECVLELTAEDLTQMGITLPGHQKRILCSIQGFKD

[16] = target: T16, EPHA4 (Homo sapiens, UniProt P54764); settings: 10 µM
T16 construct: purchased DiscoverX (KINOMEscan)
T16 sequence (P54764 20-986): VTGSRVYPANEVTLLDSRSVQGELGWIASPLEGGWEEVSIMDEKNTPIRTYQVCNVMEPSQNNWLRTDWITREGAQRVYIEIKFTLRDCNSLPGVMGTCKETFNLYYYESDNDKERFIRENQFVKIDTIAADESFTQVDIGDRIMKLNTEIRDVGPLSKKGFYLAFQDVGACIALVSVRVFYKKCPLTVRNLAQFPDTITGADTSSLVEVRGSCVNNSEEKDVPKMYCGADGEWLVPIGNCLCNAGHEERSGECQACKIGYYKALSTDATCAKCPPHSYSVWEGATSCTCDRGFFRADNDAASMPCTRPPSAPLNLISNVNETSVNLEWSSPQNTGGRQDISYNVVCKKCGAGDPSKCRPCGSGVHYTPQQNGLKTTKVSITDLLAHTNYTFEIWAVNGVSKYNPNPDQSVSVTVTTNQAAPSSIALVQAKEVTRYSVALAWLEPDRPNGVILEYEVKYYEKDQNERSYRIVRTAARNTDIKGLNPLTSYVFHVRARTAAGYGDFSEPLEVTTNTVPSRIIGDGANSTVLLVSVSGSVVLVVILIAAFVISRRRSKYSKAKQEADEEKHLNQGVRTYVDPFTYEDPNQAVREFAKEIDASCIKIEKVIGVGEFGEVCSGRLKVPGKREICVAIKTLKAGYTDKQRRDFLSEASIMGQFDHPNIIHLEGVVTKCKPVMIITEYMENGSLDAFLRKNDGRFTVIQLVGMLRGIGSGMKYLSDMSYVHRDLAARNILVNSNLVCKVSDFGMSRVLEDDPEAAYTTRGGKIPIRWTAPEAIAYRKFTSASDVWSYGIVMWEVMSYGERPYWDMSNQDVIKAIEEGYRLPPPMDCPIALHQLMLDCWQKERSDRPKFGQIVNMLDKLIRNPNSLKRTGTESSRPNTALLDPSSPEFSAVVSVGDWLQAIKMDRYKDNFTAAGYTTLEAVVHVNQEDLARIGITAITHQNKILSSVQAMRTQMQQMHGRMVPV

[17] = target: T17, ERK8 (Homo sapiens, UniProt Q8TD08); settings: 10 µM
T17 construct: purchased DiscoverX (KINOMEscan)

[18] = target: T18, FLT3 (Homo sapiens, UniProt P36888)
T18 construct: purchased DiscoverX (KINOMEscan)
T18 sequence (P36888 27-993): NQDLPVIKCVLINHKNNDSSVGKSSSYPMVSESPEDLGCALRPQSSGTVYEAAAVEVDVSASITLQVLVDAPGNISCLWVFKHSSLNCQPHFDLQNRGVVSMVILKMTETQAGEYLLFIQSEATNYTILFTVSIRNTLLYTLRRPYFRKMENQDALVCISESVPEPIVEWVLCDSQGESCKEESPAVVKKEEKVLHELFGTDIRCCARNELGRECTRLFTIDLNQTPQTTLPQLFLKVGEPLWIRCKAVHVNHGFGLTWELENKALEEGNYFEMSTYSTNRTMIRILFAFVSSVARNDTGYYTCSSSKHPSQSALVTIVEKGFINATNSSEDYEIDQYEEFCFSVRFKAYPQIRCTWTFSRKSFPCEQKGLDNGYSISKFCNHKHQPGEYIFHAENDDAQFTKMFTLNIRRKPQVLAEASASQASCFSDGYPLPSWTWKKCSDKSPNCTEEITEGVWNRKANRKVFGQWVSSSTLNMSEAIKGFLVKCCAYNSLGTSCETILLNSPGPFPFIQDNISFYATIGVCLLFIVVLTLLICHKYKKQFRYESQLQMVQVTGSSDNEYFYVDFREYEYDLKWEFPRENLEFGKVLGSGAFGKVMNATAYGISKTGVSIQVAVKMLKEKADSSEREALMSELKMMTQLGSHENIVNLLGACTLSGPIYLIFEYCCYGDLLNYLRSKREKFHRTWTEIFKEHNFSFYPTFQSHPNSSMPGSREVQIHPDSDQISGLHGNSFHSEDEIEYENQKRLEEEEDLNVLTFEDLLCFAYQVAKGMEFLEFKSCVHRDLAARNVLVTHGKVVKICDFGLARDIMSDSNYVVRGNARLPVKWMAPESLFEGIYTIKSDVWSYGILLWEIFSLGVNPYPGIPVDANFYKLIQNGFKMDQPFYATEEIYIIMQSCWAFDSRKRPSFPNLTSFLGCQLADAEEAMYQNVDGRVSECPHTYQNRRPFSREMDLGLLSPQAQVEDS

[19] = target: T19, FYN (Homo sapiens, UniProt P06241); settings: 10 µM
T19 construct: purchased DiscoverX (KINOMEscan)

[20] = target: T20, HIPK3 (Homo sapiens, UniProt Q9H422); settings: 10 µM
T20 construct: purchased DiscoverX (KINOMEscan)

[21] = target: T21, HIPK4 (Homo sapiens, UniProt Q8NE63); settings: 10 µM
T21 construct: purchased DiscoverX (KINOMEscan)

[22] = target: T22, JAK2(JH1domain-catalytic) (Homo sapiens, UniProt O60674); settings: 10 µM
T22 construct: JAK2(JH1domain-catalytic); purchased DiscoverX (KINOMEscan)

[23] = target: T23, KIT(A829P) (Homo sapiens, UniProt P10721, A829P); settings: 10 µM
T23 construct: purchased DiscoverX (KINOMEscan)

[24] = target: T24, KIT(V559DV654A) (Homo sapiens, UniProt P10721, V559D/V654A); settings: 10 µM
T24 construct: purchased DiscoverX (KINOMEscan)

[25] = target: T25, LATS2 (Homo sapiens, UniProt Q9NRM7); settings: 10 µM
T25 construct: purchased DiscoverX (KINOMEscan)

[26] = target: T26, LYN (Homo sapiens, UniProt P07948); settings: 10 µM
T26 construct: purchased DiscoverX (KINOMEscan)

[27] = target: T27, MAP3K1 (Homo sapiens, UniProt Q13233); settings: 10 µM
T27 construct: purchased DiscoverX (KINOMEscan)

[28] = target: T28, MKK7 (Homo sapiens, UniProt O14733); settings: 10 µM
T28 construct: purchased DiscoverX (KINOMEscan)

[29] = target: T29, MLCK (Homo sapiens, UniProt Q32MK0); settings: 10 µM
T29 construct: purchased DiscoverX (KINOMEscan)

[30] = target: T30, MLK2 (Homo sapiens, UniProt Q02779); settings: 10 µM
T30 construct: purchased DiscoverX (KINOMEscan)

[31] = target: T31, MST1R (Homo sapiens, UniProt Q04912); settings: 10 µM
T31 construct: purchased DiscoverX (KINOMEscan)

[32] = target: T32, p38-beta (Homo sapiens, UniProt Q15759); settings: 10 µM
T32 construct: purchased DiscoverX (KINOMEscan)

[33] = target: T33, PAK1 (Homo sapiens, UniProt Q13153); settings: 10 µM
T33 construct: purchased DiscoverX (KINOMEscan)

[34] = target: T34, PAK6 (Homo sapiens, UniProt Q9NQU5); settings: 10 µM
T34 construct: purchased DiscoverX (KINOMEscan)
T34 sequence (Q9NQU5 whole entry): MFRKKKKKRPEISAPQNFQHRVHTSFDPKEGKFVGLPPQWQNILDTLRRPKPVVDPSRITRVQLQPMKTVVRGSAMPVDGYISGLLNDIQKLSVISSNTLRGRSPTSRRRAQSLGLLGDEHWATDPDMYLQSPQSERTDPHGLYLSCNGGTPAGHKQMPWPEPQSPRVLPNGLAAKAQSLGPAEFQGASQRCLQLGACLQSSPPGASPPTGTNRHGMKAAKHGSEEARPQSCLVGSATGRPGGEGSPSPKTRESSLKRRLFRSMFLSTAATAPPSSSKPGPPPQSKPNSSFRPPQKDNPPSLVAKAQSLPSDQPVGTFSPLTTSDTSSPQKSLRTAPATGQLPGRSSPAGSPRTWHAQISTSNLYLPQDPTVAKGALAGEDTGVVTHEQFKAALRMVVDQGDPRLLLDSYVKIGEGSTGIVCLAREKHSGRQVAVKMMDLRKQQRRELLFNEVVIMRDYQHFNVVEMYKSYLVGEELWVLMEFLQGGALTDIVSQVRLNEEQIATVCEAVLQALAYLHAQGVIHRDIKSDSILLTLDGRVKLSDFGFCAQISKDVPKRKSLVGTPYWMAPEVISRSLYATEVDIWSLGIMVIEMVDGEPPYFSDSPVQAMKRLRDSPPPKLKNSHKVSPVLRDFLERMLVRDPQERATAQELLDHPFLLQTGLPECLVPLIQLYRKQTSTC

[35] = target: T35, PCTK2 (Homo sapiens, UniProt Q00537); settings: 10 µM
T35 construct: purchased DiscoverX (KINOMEscan)
T35 sequence (Q00537 whole entry): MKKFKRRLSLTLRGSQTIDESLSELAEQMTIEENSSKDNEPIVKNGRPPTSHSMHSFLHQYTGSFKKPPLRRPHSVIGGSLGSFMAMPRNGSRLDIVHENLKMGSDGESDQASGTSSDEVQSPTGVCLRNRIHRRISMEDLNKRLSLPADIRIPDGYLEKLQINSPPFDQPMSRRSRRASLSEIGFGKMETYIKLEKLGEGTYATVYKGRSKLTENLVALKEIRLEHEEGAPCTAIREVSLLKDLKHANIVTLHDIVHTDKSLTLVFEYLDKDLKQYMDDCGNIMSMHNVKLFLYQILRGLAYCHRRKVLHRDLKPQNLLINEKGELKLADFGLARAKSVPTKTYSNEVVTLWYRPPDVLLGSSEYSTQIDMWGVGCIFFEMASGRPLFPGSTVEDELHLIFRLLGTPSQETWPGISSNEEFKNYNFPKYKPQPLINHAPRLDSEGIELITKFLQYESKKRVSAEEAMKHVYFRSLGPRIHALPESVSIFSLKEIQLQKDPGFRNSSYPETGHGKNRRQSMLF

[36] = target: T36, PHKG1 (Homo sapiens, UniProt Q16816); settings: 10 µM
T36 construct: purchased DiscoverX (KINOMEscan)

[37] = target: T37, PIP5K2B (Homo sapiens, UniProt P78356); settings: 10 µM
T37 construct: purchased DiscoverX (KINOMEscan)

[38] = target: T38, PKMYT1 (Homo sapiens, UniProt Q99640); settings: 10 µM
T38 construct: purchased DiscoverX (KINOMEscan)

[39] = target: T39, PRKX (Homo sapiens, UniProt P51817); settings: 10 µM
T39 construct: purchased DiscoverX (KINOMEscan)

[40] = target: T40, RAF1 (Homo sapiens, UniProt P04049); settings: 10 µM
T40 construct: purchased DiscoverX (KINOMEscan)

[41] = target: T41, RIOK3 (Homo sapiens, UniProt O14730); settings: 10 µM
T41 construct: purchased DiscoverX (KINOMEscan)

[42] = target: T42, SNRK (Homo sapiens, UniProt Q9NRH2); settings: 10 µM
T42 construct: purchased DiscoverX (KINOMEscan)
T42 sequence (Q9NRH2 whole entry): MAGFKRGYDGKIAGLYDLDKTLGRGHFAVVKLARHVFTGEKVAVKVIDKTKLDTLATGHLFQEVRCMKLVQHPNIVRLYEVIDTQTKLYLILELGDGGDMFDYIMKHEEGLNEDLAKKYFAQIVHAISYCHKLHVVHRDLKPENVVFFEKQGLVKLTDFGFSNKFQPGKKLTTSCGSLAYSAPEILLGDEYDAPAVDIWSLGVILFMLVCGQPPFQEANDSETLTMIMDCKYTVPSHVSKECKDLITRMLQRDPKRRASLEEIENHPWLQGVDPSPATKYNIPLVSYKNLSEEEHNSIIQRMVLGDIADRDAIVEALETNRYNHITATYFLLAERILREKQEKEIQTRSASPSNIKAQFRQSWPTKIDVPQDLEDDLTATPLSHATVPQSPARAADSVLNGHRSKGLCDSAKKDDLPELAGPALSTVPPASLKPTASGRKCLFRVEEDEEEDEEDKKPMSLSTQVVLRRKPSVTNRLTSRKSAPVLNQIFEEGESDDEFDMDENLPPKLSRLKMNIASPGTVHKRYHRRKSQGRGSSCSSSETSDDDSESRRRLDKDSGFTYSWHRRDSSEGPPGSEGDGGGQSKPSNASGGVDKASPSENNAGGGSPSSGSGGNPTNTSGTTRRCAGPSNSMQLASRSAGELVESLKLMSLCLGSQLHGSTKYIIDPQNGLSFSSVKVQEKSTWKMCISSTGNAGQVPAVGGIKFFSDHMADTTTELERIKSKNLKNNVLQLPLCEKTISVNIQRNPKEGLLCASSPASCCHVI

[43] = target: T43, STK16 (Homo sapiens, UniProt O75716); settings: 10 µM
T43 construct: purchased DiscoverX (KINOMEscan)

[44] = target: T44, TTK (Homo sapiens, UniProt P33981); settings: 10 µM
T44 construct: purchased DiscoverX (KINOMEscan)

Nc1ccc(N=Nc2ccccc2)c(N)n1 [phenazopyridine, 2,6-diamino-3-(phenylazo)pyridine]
kinase inhibition [1]: 77 | kinase inhibition [2]: 91 | kinase inhibition [3]: 100 | kinase inhibition [4]: 99 | kinase inhibition [5]: 98 | kinase inhibition [6]: 100 | kinase inhibition [7]: 88 | kinase inhibition [8]: 90 | kinase inhibition [9]: 90 | kinase inhibition [10]: 88 | kinase inhibition [11]: 100 | kinase inhibition [12]: 86 | kinase inhibition [13]: 100 | remaining binding (% of control) [14]: 93 | kinase inhibition [15]: 100 | kinase inhibition [16]: 86 | kinase inhibition [17]: 100 | remaining binding (% of control) ([18]; 10 µM): 25 | remaining binding at 10 µM ([18]; read-out: % Of control): 25% | remaining binding (% of control) [19]: 100 | kinase inhibition [20]: 98 | kinase inhibition [21]: 72 | kinase inhibition [22]: 82 | kinase inhibition [23]: 95 | kinase inhibition [24]: 87 | kinase inhibition [25]: 100 | kinase inhibition [26]: 82 | kinase inhibition [27]: 100 | kinase inhibition [28]: 100 | kinase inhibition [29]: 96 | kinase inhibition [30]: 100 | kinase inhibition [31]: 94 | kinase inhibition [32]: 83 | kinase inhibition [33]: 100 | kinase inhibition [34]: 100 | kinase inhibition [35]: 98 | kinase inhibition [36]: 98 | kinase inhibition [37]: 97 | kinase inhibition [38]: 85 | kinase inhibition [39]: 91 | kinase inhibition [40]: 100 | remaining binding (% of control) [41]: 100 | kinase inhibition [42]: 100 | kinase inhibition [43]: 76 | kinase inhibition [44]: 88

Source: article PMC8371461 (Frontiers in Pharmacology, 2021)
